Measured values: patent US9023767B2, “γ-Secretase substrates and methods of use” (Memorial Sloan-Kettering Cancer Center, priority 2009, dated 2015)
Where “and” joins values, the source holds several entries; their conditions need not be identical. Identical values can stand only once.

Key:
γ-secretase [1] = target: T1, γ-secretase (Homo sapiens (Human), UniProt P49768); assay: In vitro γ-secretase assay, solubilized γ-secretase, ECL; format: biochemical; details: Sb4 substrate
Description: The γ-secretase cleaved Aβ product derived from C100Flag substrate was detected by a pair of antibodies (biotinylated 4G8 and ruthenylated G2-10*) while Sb4 cleaved product was detected by ruthenylated G2-10* alone (FIG. 10a) and quantified using electrochemiluminescence (ECL) technology.
An in vitro assay was based on the one previously reported by Li et al. (2000), except we utilized Sb4 substrate that eliminated the need for biotinylated antibody. […] All assays incorporate ruthenylated G2-10* antibody to detect 40-site cleavage of APP or recombinant Sb4 substrate and quantitated activity by measuring ECL.

γ-secretase [2] = target: T2, γ-secretase (Mus musculus (Mouse), UniProt P49769); assay: Cell-based activity assay, N2A cells stably over-expressing APP; details: 24 hrs, Aβ40; read-out: Cell-based (nM), IC50
Procedure: (§1) The potency of two structurally different GSIs was assayed in four unique γ-secretase activity assays. IC50 values were determined from the dose response curves using a non-linear regression analysis in the Prism software. An in vitro assay was based on the one previously reported by Li et al. (2000), except we utilized Sb4 substrate that eliminated the need for biotinylated antibody. The cell-based activity assay used N2A mouse neuroblastoma cells stably over-expressing APP and a biotinylated 4G8 antibody that binds the C-terminus of the amyloid beta peptide. The exo-cell assay incubated HeLa cells simultaneously with GSI, Sb4 substrate as well as 0.25% CHAPSO detergent prior to detecting substrate cleavage. Finally, the extended exo-cell assay first incubated HeLa cells with GSI for 24 hrs. Subsequently, the cells were washed 1× in PBS and then incubated with Sb4 substrate and CHAPSO detergent. The assay was then carried out exactly as described for the original exo-cell method. All assays incorporate ruthenylated G2-10* antibody to detect 40-site cleavage of APP or recombinant Sb4 substrate and quantitated activity by measuring ECL. The latter assays were performed as previously described (Li et al., 2000). In the in vitro assay, recombinant Sb4 substrate was incubated for 2.5 hours at 37° C. in pH 7.0 PIPES buffer in the presence of 0.25% CHAPSO detergent and solubilized γ-secretase at a final concentration of 40 ng/ul. The detection of cleaved substrate was determined using ruthenylated G2-10* antibody. Since the Sb4 substrate is biotinylated additional 6E10 biotinylated antibody used in earlier assays is not required. In the cell-based assay, N2A mouse neuroblastoma cells that stably overexpress amyloid precursor protein were incubated with γ-secretase inhibitors in a final concentration of 1% DMSO for 24 hrs. Following incubation, the supernatant was removed from the cells and assayed for Aβ40, the cleaved APP product, using ruthenylated G2-10* antibody as well as biotinylated 4G8 antibody.

γ-secretase [3] = target: T1, γ-secretase; assay: Exo-cell γ-secretase assay, HeLa cells, Sb4 substrate; format: cell-based
Procedure: Therefore, HeLa cells were first incubated with Sb4 substrate, as well as CHAPSO detergent as depicted in FIG. 14c. Cells were seeded at their indicated concentration in 96-well plates and allowed to attach overnight. The next day, media was removed and cells were washed once with PBS. Fresh media was then added containing 0.25% CHAPSO detergent, Sb4 substrate to a final concentration of 1 μM, and 1% DMSO or γ-secretase inhibitor. This was incubated for 2.5 hours at 37° C. Media was removed and cell debris was pelleted from this media for 5 min. at 3,500 rpm. Supernatant was then added to ruthenylated G2-10* antibody that recognizes cleaved product, but not uncleaved substrate. This was incubated for an additional 2 hours at room temperature. Finally, magnetic streptavidin beads were added to a final concentration of 80 μg/ml and incubated for 30 min. at room temperature. Assay buffer was added to the samples and γ-secretase-mediated cleavage of substrate was monitored using electrochemiluminescence (ECL) (Li et al., 2000). (FIG. 14c).
as §1

γ-secretase [4] = target: T1, γ-secretase; assay: Extended exo-cell γ-secretase assay, HeLa cells; format: cell-based; details: 24 hrs pretreatment; read-out: Extended Exo-Cell (nM), IC50
Procedure: as §1, with “In the cell-based assay, N2A mouse neuroblastoma cells that stably overexpress amyloid precursor protein were incubated with γ-secretase inhibitors in a final concentration of 1% DMSO for 24 hrs. Following incubation, the supernatant was removed from the cells and assayed for Aβ40, the cleaved APP product, using ruthenylated G2-10* antibody as well as biotinylated 4G8 antibody.” left out
The exo-cell assay was adapted to monitor real-time γ-secretase activity and inhibition over extended times of pretreatment regimens. […] This modified, extended treatment exo-cell assay is capable of quantifying remaining γ-secretase activity following drug treatment on virtually any cell type. The IC50 values for Compound E and GSI-34 were calculated using the extended exo-cell assay (Table 3 and FIG. 15d). […]

A20 mouse lymphoma cells = assay: Lymphoma cell proliferation assay, [3H]thymidine incorporation; format: cell-based; details: 48 hours
Procedure: For a lymphoma cell proliferation assay, A20 mouse lymphoma cells were seeded in a 96-well plate at a concentration of 5×10^5 cells/ml in 100 μl RPMI media containing 2% fetal bovine serum. An additional 100 μl of media containing DMSO or γ-secretase inhibitor was added and incubated for 48 hours at 37° C. After this incubation, the cells were incubated for 5 hours with 2 μCi/ml [^3H]thymidine at 37° C. Proliferative response was then evaluated by harvesting the tritiated DNA from cells using a Skatron cell harvester and proliferation assessed as a function of [^3H]thymidine incorporation measured on a β-counter.

γ-secretase [5] = target: T2, γ-secretase; assay: Cellular γ-secretase activity, secreted Aβ40 from N2A APP stable cells; format: cell-based; details: 48 hrs
Procedure: FIG. 5. […] The conditioned media were collected and secreted Aβ40 was measured with 6E10/G2-10 antibodies (mean±SEM; n=3). The activities of the peptide treatments were normalized to the DMSO treatment. […] The same experiments were performed as FIG. 5c. The cell lysates were analyzed by CT-15 antibody. Upper panel: full length APP. Lower panel: CTFs. […] The ΔE-Notch1 (a Notch construct with deletion of the extracellular portion and tagged by Myc) was transfected into HEK293 cells.
After transfection or compound treatment, conditioned cell media were collected and diluted in RIPA buffer. Secreted Aβ peptides were detected by ECL assay using biotinylated 6E10 and ruthenylated G2-10 antibodies.

γ-secretase [6] = target: T3, γ-secretase (Homo sapiens (Human), UniProt P49768+Q92542); assay: In vitro γ-secretase assay, HeLa membrane, APP-derived substrates, ECL detection; format: biochemical
Procedure: The recombinant proteins were incubated with γ-secretase (40 μg/ml) in the presence or absence of 1 μM γ-secretase inhibitor L-685,458 (CAS [292632-98-5], shown below). The reaction mixture contains 0.25% 3[(3-cholamidopropyl) dimethylammonio]-2-hydroxypropanesulfonic acid (CHAPSO), 0.1 μg/μl BSA, protease inhibitor, 50 mM PIPES, pH 7.0, 5 mM MgCl2, 5 mM CaCl2 and 150 mM KCl. The reaction was incubated for 2.5 hr at 37° C. and stopped by adding RIPA buffer (150 mM NaCl, 1.0% NP-40, 0.5% sodium
[drawing 1] deoxycholate, 0.1% SDS, 50 mM Tris HCl, pH 8.0). The products were detected with various antibody combinations as previously described (Lai et al., 2003; J. Biol. Chem., 278: 22475-22481; Li et al., 2000, Proc. Natl. Acad. Sci. USA, 97: 6138-6143; Yin et al., 2007, J. Biol. Chem., 282:23639-23644) using electrochemiluminescence (ECL). The amount of product was determined using synthetic peptide or recombinant standards. The Km and Vmax were determined from the Michaelis-Menten equation Michaelis-Menten Kinetics (ν=Vm[S]/([…]; ν: initial rate; Vm: maximum velocity; Km: the Michaelis-Menten constant, S: substrate). P-values were calculated from Student t-test. 7.1.5 Cell-Based Aβ Production Assay and Western Blot

γ-secretase [7] = target: T3, γ-secretase; assay: In vitro γ-secretase cleavage of Notch1 peptide substrate, HeLa membrane, Val1744 antibody; format: biochemical
Procedure: FIG. 4. […] Various concentrations of inhibitor were incubated with APP substrate (S4) or Notch peptide substrate containing the C-terminal biotinylated transmembrane domain of Notch1 and HeLa cell membrane in the presence of 0.25% CHAPSO. Aβ40 was detected by G2-10 antibody. […] Activities are expressed as percentage relative to reading that was produced in DMSO control. […] Various concentrations of S4 substrate were incubated with HeLa membrane in fixed concentrations of inhibitor as indicated. The double reciprocal velocity (1/v) and substrate concentrations (1/S) are plotted to determine the type of inhibition. […] Assays were conducted as described in FIG. 4A. […] The labeled samples were solubilized with RIPA buffer. Biotinylated proteins were captured with streptavidin-agarose and probed by immunoblotting using antibodies against biotin, PS1-CTF, PS1-NTF, Nicastrin, PEN-2 and APH-1a. HeLa cell membrane proteins were directly loaded onto lanes indicated by an arrow in the PEN-2 and APH-1a blots as positive controls. […] Upper panel: PS1-NTF; Lower panel: PS1-CTF. […] Rev.

γ-secretase [8] = target: T2, γ-secretase; assay: In vitro γ-secretase activity from mouse brain membrane; format: biochemical
Procedure: (§2) FIG. 3. Effect of the inhibitory domain on in vitro γ-secretase activity. […] The γ-secretase cleavage site is indicated by an arrow between orange and blue shades. The Aβ17-23 region is marked by dotted square. (B) The kinetic analyses of γ-secretase reactivity with βCTF and βCTFΔ substrates. […] The product Aβ40 was assayed with biotinylated 6E10 and ruthenylated G2-10 antibodies by ECL. […] Note: […] The product Aβ38 was assayed with biotinylated 6E10 and ruthenylated Aβ38 antibodies (purchased from Dr. […]) (data represent the mean of duplicates with variance<10%). (E) The effect of an inhibitory domain on γ-secretase activity for ACID production. HEK293 cell membrane was prepared from cells that have been transfected with β[…] et al., 1999) and βCTFΔ(SPA4CTΔ) constructs for 48 hours. Cell membranes (2 mg/ml) were incubated in the absence and presence of 2 μM L-685,458 and then analyzed by Western blotting with CT-15 antibody (Chen et al., 2002). It was next determined whether γ-secretase from other sources has the same preference for the βCTFΔ substrate. […] Product formation was monitored by G2-10 and G2-11 antibodies, respectively. […] In addition, the γ-secretase activity was assayed for Aβ38 production and ε-cleavage (FIGS. 3D and 3E). The Aβ38-site cleavage was detected with a combination of biotinylated 6E10 and ruthenylated anti-Aβ38 antibodies. […]

γ-secretase [9] = target: T1, γ-secretase; assay: AICD production (ε-cleavage), membranes of transfected HEK293 cells, Western blot; format: biochemical
Procedure: as §2

O=C(COc1ccc(F)cc1)Nc1ccc2c(c1)CC1CCC(C2)C1NS(=O)(=O)c1ccc(Cl)s1 (centres unmarked) [GSI-34]
IC50 (γ-secretase [1]): 1 nM | IC50 (γ-secretase [2]): 32.4 nM | IC50 (γ-secretase [3]; ECL detection, read-out: Exo-Cell (nM), IC50): 5.9 nM | IC50 (γ-secretase [3]; HTRF detection, read-out: IC50, exo-cell assay): 5.4 nM | IC50 (γ-secretase [4]): 38.7 nM and 39 nM | reduction of cellular proliferation (A20 mouse lymphoma cells; 300 nM): 30% | inhibition of cellular proliferation (A20 mouse lymphoma cells): able to inhibit cellular proliferation

COC(=O)CC[C@@H](NC(=O)[C@H](N)CC(=O)OC)C(=O)N[C@H](C)C(=O)N[C@H](Cc1ccccc1)C(=O)N[C@H](Cc1ccccc1)C(=O)N[C@@H](C(=O)N[C@H](CC(C)C)C(N)=O)C(C)C [RI-PM-1]
inhibition at 100 µM (γ-secretase [5]; 100 μM, read-out: inhibition of the production of Aβ): 70% | effect on secreted Aβ species (γ-secretase [5]; 100, 60 and 30 μM): reduces secreted Aβ species in a dose dependent manner

VKSEPVEPPL [S2-site derived Notch peptide, N-terminal residues of NEXT]
inhibition of γ-secretase activity, APP processing (γ-secretase [6]): did not inhibit | inhibition of γ-secretase activity, Notch processing (γ-secretase [7]): did not inhibit

B1: βCTFΔ: βCTF in which the Aβ17-23 inhibitory domain is deleted (protein, listed as Homo sapiens)
chain: GSHMDAEFRHDSGYEVHHQKVGSNKGAIIGLMVGGVVIATVIVITLVMLKKKQYTSIHHGVVEVDAAVTPEERHLSKMQQNGYENPTYKFFEQMQNDYKDDDDK
reaction rate of hydrolysis compared to βCTF, 40-site (γ-secretase [8]; G2-10): 25 times | reaction rate of hydrolysis compared to βCTF, 42-site (γ-secretase [8]; G2-11): 11 times | effect of domain deletion on ε-cleavage (AICD) (γ-secretase [9]): no effect
